Patent publication US20240190821A1, “SULFONAMIDE SUBSTITUTED N-(1H-INDOL-7-YL)BENZENESULFONAMIDES AND USES THEREOF” (Triana Biomedicines, Inc., priority 2021, published 2024)
pEC50, pIC50: −log10 of the molar value. Where two headings read alike, the source gives them in different places.

Assays:
[1] = molecular target: DCAF15 (Homo sapiens, UniProt Q66K64); assay: Binary interaction between compounds and DCAF15, HTRF competition assay; format: binding
Description: DCAF15 interactions with test compounds were monitored using HTRF competition assays (Cisbio, Bedford, MA). […] These two solutions were mixed and incubated for 15 min at room temperature. 9.8 ul of the tracer solution and 10 ul of the DCAF15/mAb Anti-6His-Eu cryptate Gold mixture were added sequentially to each well in the assay plate. Reaction mixtures with no DCAF15 added were included as […] controls. […] Binding was estimated based on ratiometric analysis and titration curves were generated in GraphPad Prism (7.00, GraphPad, La Jolla, CA).

[2] = molecular target: T1, DCAF15-RBM39 ternary complex (Homo sapiens, UniProt Q14498+Q66K64); assay: Compound-induced DCAF15-RBM39 ternary complex formation, AlphaLISA; format: biochemical
T1 construct: (RRM2)
Description: Compound-induced DCAF15-RBM39 ternary complex formation was monitored using AlphaLISA® assays (Perkin Elmer, Waltham, MA). […] 9.8 ul of this protein mixture was then mixed with the compounds in the assay plate and incubated for one hour at room temperature. Reaction mixtures with no compounds added were included as negative controls, while a His-tagged and biotinylated GST protein was included to track general assay performance. […] The beads were then added to the assay plate sequentially with incubation at room temperature for 1-2 hours after each addition.

[3] = HTRF competition with Alexa Fluor 647 tracer, His-tagged DCAF15 complex, read-out: DCAF15 IC50
[4] = AlphaLISA, His-tagged DCAF15 complex and biotin-carrying RBM39, read-out: Ternary-RBM39 (RRM2) EC50

Sequence of DCAF15 (Q66K64 whole entry): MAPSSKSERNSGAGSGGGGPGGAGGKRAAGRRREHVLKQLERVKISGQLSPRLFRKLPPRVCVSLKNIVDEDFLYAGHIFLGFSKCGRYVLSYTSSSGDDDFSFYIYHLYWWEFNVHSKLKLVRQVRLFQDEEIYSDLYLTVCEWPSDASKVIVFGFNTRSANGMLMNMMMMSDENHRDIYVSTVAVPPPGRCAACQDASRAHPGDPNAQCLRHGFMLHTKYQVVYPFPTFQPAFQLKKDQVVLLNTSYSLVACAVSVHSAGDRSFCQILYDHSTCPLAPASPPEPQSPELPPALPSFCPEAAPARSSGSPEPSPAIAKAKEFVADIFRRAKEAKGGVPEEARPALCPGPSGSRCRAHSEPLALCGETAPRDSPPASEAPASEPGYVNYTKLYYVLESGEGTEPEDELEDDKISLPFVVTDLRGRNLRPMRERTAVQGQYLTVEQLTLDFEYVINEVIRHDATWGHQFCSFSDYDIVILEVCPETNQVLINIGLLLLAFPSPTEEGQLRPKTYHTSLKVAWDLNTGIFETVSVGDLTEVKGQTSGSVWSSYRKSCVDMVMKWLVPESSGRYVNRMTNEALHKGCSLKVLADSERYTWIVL
Sequence of DCAF15 (Q16531 whole entry partner): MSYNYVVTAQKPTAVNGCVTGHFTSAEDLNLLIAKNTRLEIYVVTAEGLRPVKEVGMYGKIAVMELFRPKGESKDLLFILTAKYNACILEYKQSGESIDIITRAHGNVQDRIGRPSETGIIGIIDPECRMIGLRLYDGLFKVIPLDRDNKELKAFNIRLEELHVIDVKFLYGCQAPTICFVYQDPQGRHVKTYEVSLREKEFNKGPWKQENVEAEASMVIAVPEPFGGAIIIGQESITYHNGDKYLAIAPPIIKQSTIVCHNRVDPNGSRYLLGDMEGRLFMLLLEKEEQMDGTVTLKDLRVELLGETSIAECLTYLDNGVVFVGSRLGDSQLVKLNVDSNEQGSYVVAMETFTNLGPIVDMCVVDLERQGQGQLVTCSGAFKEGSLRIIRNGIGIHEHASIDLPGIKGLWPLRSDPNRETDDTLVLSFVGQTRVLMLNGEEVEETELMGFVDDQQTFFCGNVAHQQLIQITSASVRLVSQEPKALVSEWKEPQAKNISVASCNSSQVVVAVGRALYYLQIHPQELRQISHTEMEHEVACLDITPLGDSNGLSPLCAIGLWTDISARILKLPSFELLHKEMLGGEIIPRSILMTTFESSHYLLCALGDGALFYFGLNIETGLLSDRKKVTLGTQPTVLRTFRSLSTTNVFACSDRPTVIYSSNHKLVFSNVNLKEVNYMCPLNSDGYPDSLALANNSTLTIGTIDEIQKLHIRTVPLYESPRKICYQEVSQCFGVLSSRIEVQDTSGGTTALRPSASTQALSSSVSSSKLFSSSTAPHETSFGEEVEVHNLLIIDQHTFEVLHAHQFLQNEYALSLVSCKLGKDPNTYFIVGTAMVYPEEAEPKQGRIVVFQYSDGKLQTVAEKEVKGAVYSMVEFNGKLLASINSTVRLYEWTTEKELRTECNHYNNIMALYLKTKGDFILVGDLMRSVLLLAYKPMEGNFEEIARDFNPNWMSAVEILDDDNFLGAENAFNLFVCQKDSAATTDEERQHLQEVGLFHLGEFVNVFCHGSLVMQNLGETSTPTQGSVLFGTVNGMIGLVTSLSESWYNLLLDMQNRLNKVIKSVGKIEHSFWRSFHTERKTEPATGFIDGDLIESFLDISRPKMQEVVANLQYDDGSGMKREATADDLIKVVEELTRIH
T1 sequence (Q66K64 whole entry): as the sequence (Q66K64 whole entry) above
T1 sequence (Q14498 250-328 limits assumed): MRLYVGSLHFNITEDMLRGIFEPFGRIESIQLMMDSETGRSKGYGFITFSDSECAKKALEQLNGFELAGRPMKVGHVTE
T1 sequence (Q16531 whole entry partner): as the sequence (Q16531 whole entry partner) above

`CC(C)C(=O)Nc1cccc(CNS(=O)(=O)c2ccc(S(=O)(=O)Nc3ccc(Cl)c4c(Cl)c[nH]c34)cc2)c1` [Compound 13, N-(3-(((4-(N-(3,4-dichloro-1H-indol-7-yl)sulfamoyl)phenyl)sulfonamido)methyl)phenyl) isobutyramide] was tested, and the pIC50 [1, 3] was > 4.70 and the pEC50 [2, 4] was > 4.70.
For `Cc1nc2c(n1C)CCN(S(=O)(=O)c1ccc(S(=O)(=O)Nc3ccc(Cl)c4c(Cl)c[nH]c34)cc1)C2` [Compound 53, N-(3,4-dichloro-1H-indol-7-yl)-4-((1,2-dimethyl-1,4,6,7-tetrahydro-5H-imidazo[4,5-c]pyridin-5-yl)sulfonyl)benzene sulfonamide], the pIC50 [1, 3] was > 5.30 and the pEC50 [2, 4] was > 5.30.
In the case of `CCCN(C1CCNCC1)S(=O)(=O)c1ccc(S(=O)(=O)Nc2ccc(Cl)c3c(Cl)c[nH]c23)cc1` [Compound 30, N^1-(3,4-dichloro-1H-indol-7-yl)-N^4-(piperidin-4-yl)-N^4-propylbenzene-1,4-disulfonamide], the pIC50 [1, 3] was > 5.30 and the pEC50 [2, 4] was > 6.00.
In the case of `N#Cc1ccc(NS(=O)(=O)c2ccc(S(=O)(=O)N3CCNCC3)cc2)c2[nH]cc(Cl)c12` [Compound 88, N-(3-chloro-4-cyano-1H-indol-7-yl)-4-(piperazin-1-ylsulfonyl)benzenesulfonamide], the pIC50 [1, 3] was > 4.70 and the pEC50 [2, 4] was > 6.00.
`Cc1cc(CNS(=O)(=O)c2ccc(S(=O)(=O)Nc3ccc(Cl)c4c(Cl)c[nH]c34)cc2)nn1C` [Compound 15, N^1-(3,4-dichloro-1H-indol-7-y1)-N^4-((1,5-dimethyl-1H-pyrazol-3-yl)methyl)benzene-1,4-disulfonamide] was tested, and the pIC50 [1, 3] was > 5.30 and the pEC50 [2, 4] was > 4.70.
With `CCCN(c1ccc(S(=O)(=O)Nc2ccc(Cl)c3c(Cl)c[nH]c23)cc1)S(=O)(=O)N1CCN(C)CC1` [Compound 66, N-(4-(N-(3,4-dichloro-1H-indol-7-yl)sulfamoyl)phenyl)-4-methyl-N-propylpiperazine-1-sulfonamide] the pIC50 [1, 3] was > 5.30 and the pEC50 [2, 4] was > 6.00.
With `O=S(=O)(Nc1ccc(Cl)c2c(Cl)c[nH]c12)c1ccc(S(=O)(=O)N2CCc3[nH]c(-c4ccccc4)nc3C2)cc1` [Compound 54, N-(3,4-dichloro-1H-indol-7-yl)-4-((2-phenyl-1,4,6,7-tetrahydro-5H-imidazo[4,5-c]pyridin-5-yl)sulfonyl) benzene sulfonamide] the pIC50 [1, 3] was > 4.00 and the pEC50 [2, 4] was > 5.30.
In the case of `CCCN(c1ccc(S(=O)(=O)Nc2ccc(Cl)c3c(Cl)c[nH]c23)cc1)S(=O)(=O)N1CCNCC1` [Compound 67, N-(4-(N-(3,4-dichloro-1H-indol-7-yl)sulfamoyl)phenyl)-N-propylpiperazine-1-sulfonamide], the pIC50 [1, 3] was > 5.30 and the pEC50 [2, 4] was > 6.00.
In the case of `O=S(=O)(Nc1ccc(Cl)c2c(Cl)c[nH]c12)c1ccc(C2(N3CCNCC3)CC2)cc1` [Compound 59, N-(3,4-dichloro-1H-indol-7-yl)-4-(1-(piperazin-1-yl)cyclopropyl) benzenesulfonamide], the pIC50 [1, 3] was > 5.30 and the pEC50 [2, 4] was > 6.00.
For `COc1cccc(Oc2ccc(CNS(=O)(=O)c3ccc(S(=O)(=O)Nc4ccc(Cl)c5c(Cl)c[nH]c45)cc3)cn2)c1` [Compound 17, N^1-(3,4-dichloro-1H-indol-7-yl)-N^4-((6-(3-methoxyphenoxy)pyridin-3-yl)methyl)benzene-1,4-disulfonamide], the pIC50 [1, 3] was > 4.70 and the pEC50 [2, 4] was > 4.70.
In the case of `CCN=S(=O)(c1ccc(S(=O)(=O)Nc2ccc(Cl)c3c(Cl)c[nH]c23)cc1)C1CCNCC1` (stereo not shown) [Compound 68, N-(3,4-dichloro-1H-indol-7-yl)-4-(N-ethylpiperidine-4-sulfonimidoyl)benzenesulfonamide], the pIC50 [1, 3] was > 5.30 and the pEC50 [2, 4] was > 6.00.
For `O=S(=O)(Nc1ccc(Cl)c2c(Cl)c[nH]c12)c1ccc(S(=O)(=O)NC2CCOCC2)cc1` [Compound 28, N^1-(3,4-dichloro-1H-indol-7-yl)-N^4-(tetrahydro-2H-pyran-4-yl)benzene-1,4-disulfonamide], the pIC50 [1, 3] was > 4.00 and the pEC50 [2, 4] was > 6.00.
`Cc1ccc(NS(=O)(=O)c2ccc(S(=O)(=O)N3CCC(N)CC3)cc2)c2[nH]cc(C#N)c12` [Compound 81, 4-((4-aminopiperidin-1-yl)sulfonyl)-N-(3-cyano-4-methyl-1H-indol-7-yl) benzenesulfonamide] was tested, and the pIC50 [1, 3] was > 5.30 and the pEC50 [2, 4] was > 6.00.
In the case of `CC1CN(S(=O)(=O)c2ccc(S(=O)(=O)Nc3ccc(Cl)c4c(Cl)c[nH]c34)cc2)CCN1` (stereo not shown) [compound 109], the pIC50 [1, 3] was > 5.30 and the pEC50 [2, 4] was > 6.00.
`Cc1ccc(CCNS(=O)(=O)c2ccc(S(=O)(=O)Nc3ccc(Cl)c4c(Cl)c[nH]c34)cc2)o1` [Compound 25, N^1-(3,4-dichloro-1H-indol-7-yl)-N4_ (2-(5-methylfuran-2-yl)ethyl)benzene-1,4-disulfonamide] was tested, and the pIC50 [1, 3] was > 4.70 and the pEC50 [2, 4] was > 4.70.
`O=S(=O)(Nc1ccc(Cl)c2c(Cl)c[nH]c12)c1ccc(S(=O)(=O)N2CCNCC2)cc1F` [Compound 44, N-(3,4-dichloro-1H-indol-7-yl)-2-fluoro-4-(piperazin-1-ylsulfonyl)benzenesulfonamide] was tested, and the pIC50 [1, 3] was > 5.30 and the pEC50 [2, 4] was > 6.00.
In the case of `CCCC1CNCCN1S(=O)(=O)c1ccc(S(=O)(=O)Nc2ccc(Cl)c3c(Cl)c[nH]c23)cc1` (stereo not shown) [Compound 47, N-(3,4-dichloro-1H-indol-7-yl)-4-((2-propylpiperazin-1-yl)sulfonyl)benzenesulfonamide], the pIC50 [1, 3] was > 5.30 and the pEC50 [2, 4] was > 6.00.
With `O=S(=O)(Nc1ccc(Cl)c2c(Cl)c[nH]c12)c1ccc(C(F)(F)C2CCNCC2)cc1` [Compound 70, N-(3,4-dichloro-1H-indol-7-yl)-4-(difluoro(piperidin-4-yl)methyl)benzene sulfonamide] the pIC50 [1, 3] was > 5.30 and the pEC50 [2, 4] was > 6.00.
In the case of `Cc1ccnc(CNS(=O)(=O)c2ccc(S(=O)(=O)Nc3ccc(Cl)c4c(Cl)c[nH]c34)cc2)c1` [Compound 16, N^1-(3,4-dichloro-1H-indol-7-yl)-N^4-((4-methylpyridin-2-yl)methyl)benzene-1,4-disulfonamide], the pIC50 [1, 3] was > 5.30 and the pEC50 [2, 4] was > 4.70.
`Cc1cnc(CNS(=O)(=O)c2ccc(S(=O)(=O)Nc3ccc(Cl)c4c(Cl)c[nH]c34)cc2)cn1` [Compound 19, N^1-(3,4-dichloro-1H-indol-7-yl)-N4_ ((5-methylpyrazin-2-yl)methyl)benzene-1,4-disulfonamide] was tested, and the pIC50 [1, 3] was > 5.30 and the pEC50 [2, 4] was > 6.00.
With `O=S(=O)(NCCCOCc1ccccc1)c1ccc(S(=O)(=O)Nc2ccc(Cl)c3c(Cl)c[nH]c23)cc1` [Compound 5, N^1-(3-(benzyloxy)propyl)-N^4-(3,4-dichloro-1H-indol-7-yl)benzene-1,4-disulfonamide] the pIC50 [1, 3] was > 4.00 and the pEC50 [2, 4] was > 4.70.
In the case of `O=S(=O)(Nc1ccc(Cl)c2c(Cl)c[nH]c12)c1ccc(S(=O)(=O)N2CCC(O)CC2)cc1` [Compound 38, N-(3,4-dichloro-1H-indol-7-yl)-4-((4-hydroxypiperidin-1-yl)sulfonyl)benzene sulfonamide], the pIC50 [1, 3] was > 5.30 and the pEC50 [2, 4] was > 6.00.
In the case of `O=C1CCC(NS(=O)(=O)c2ccc(S(=O)(=O)Nc3ccc(Cl)c4c(Cl)c[nH]c34)c(F)c2)CN1` (stereo not shown) [compound 105], the pIC50 [1, 3] was > 4.70 and the pEC50 [2, 4] was > 4.70.
In the case of `Cc1ccc(NS(=O)(=O)c2ccc(S(=O)(=O)N3CCN4CCCC4C3)cc2)c2[nH]cc(C#N)c12` (stereo not shown) [Compound 91, N-(3-cyano-4-methyl-1H-indol-7-yl)-4-((hexahydropyrrolo[1,2-a]pyrazin-2(1H)-yl)sulfonyl)benzenesulfonamide], the pIC50 [1, 3] was > 4.00 and the pEC50 [2, 4] was > 6.00.
`Cc1ccc(NS(=O)(=O)c2ccc(S(=O)(=O)N3CCC(N(C)C)C3)cc2)c2[nH]cc(C#N)c12` (stereo not shown) [Compound 80, N-(3-cyano-4-methyl-1H-indol-7-yl)-4-((3-(dimethylamino)pyrrolidine-1-yl)sulfonyl)benzenesulfonamide] was tested, and the pIC50 [1, 3] was > 4.70 and the pEC50 [2, 4] was > 6.00.
With `N#Cc1cc(S(=O)(=O)Nc2ccc(Cl)c3c(Cl)c[nH]c23)ccc1S(=O)(=O)N1CCNCC1` [Compound 43, 3-cyano-N-(3,4-dichloro-1H-indol-7-yl)-4-(piperazin-1-ylsulfonyl)benzenesulfonamide] the pIC50 [1, 3] was > 5.30 and the pEC50 [2, 4] was > 6.00.
With `CN1CC(NS(=O)(=O)c2ccc(S(=O)(=O)Nc3ccc(Cl)c4c(Cl)c[nH]c34)cc2)CCC1=O` (stereo not shown) [Compound 32, N^1-(3,4-dichloro-1H-indol-7-yl)-N^4-(1-methyl-6-oxopiperidin-3-yl)benzene-1,4-disulfonamide] the pIC50 [1, 3] was > 5.30 and the pEC50 [2, 4] was > 6.00.
In the case of `O=S(=O)(Nc1ccc(Cl)c2c(Cl)c[nH]c12)c1ccc(S(=O)(=O)N2CCN(CCOCCc3ccccn3)CC2)cc1` [Compound 51, N-(3,4-dichloro-1H-indol-7-yl)-4-((4-(2-(2-(pyridin-2-yl)ethoxy)ethyl)piperazin-1-yl)sulfonyl)benzenesulfonamide], the pIC50 [1] was > 4.70 and the pEC50 [2] was > 6.00.
`CCCN(C(=O)CN)c1ccc(S(=O)(=O)Nc2ccc(Cl)c3c(Cl)c[nH]c23)cc1` [compound 131] was tested, and the pIC50 [1, 3] was > 5.30 and the pEC50 [2, 4] was > 6.00.
